According to paper PMC6921279 (Frontiers in Endocrinology, 2019):
Each block holds one compound with its values, some of them ahead of it.

Experiments:
[1] = tested on: CRF1R-mediated ERK1/2 phosphorylation; assay: Modulation of CRF-stimulated ERK1/2 phosphorylation in COS-7 cells expressing HA-CRF1R; format: cell-based
Procedure: (§1) Plasmid pRK5 encoding the carboxyl terminus of βARK that contains its βγ-binding domain (ct-βARK) was kindly provided by Dr. W. Koch (Center for Translational Medicine, Temple University, Philadelphia, PA), which is a scavenger for G protein βγ subunits ([25]). […] Plasmid pUSEamp encoding dominant-negative Akt-K179M (dn-Akt) was from Upstate Biotechnology (Lake Placid, NY).
(§2) COS-7 cells (from the American Type Culture Collection) were cultured at 37°C in a humidified atmosphere of 95% air, 5% CO2, in DMEM supplemented with 10% FBS, 100 μg/ml streptomycin, and 100 units/ml penicillin (COS-7 growth medium). Transient transfections were performed using LipofectAMINE (Life Technologies: Gaithersburg, MD) as described previously ([27]). Cells were seeded at 8 × 10^5 cells/10-cm dish in COS-7 medium and cultured for 3 days before transfection. COS-7 cells were transfected in 5 ml/dish OptiMEM containing 10 μg/ml LipofectAMINE with empty vector, pcDNA3 encoding the HA-CRF1R or the HA-CRF1R-Δ386 mutant. […] After replacing the transfection medium with fresh growth medium, transfected COS-7 cells were cultured for 1 day. Subsequently, cells were re-seeded in 6-well plates and cultured for an additional day prior to the experiment.
(§3) The protocols for measuring total and phosphorylated ERK1/2, c-Src, PYK2, Akt, and EGFR have been previously published ([28], [29]). After cells were cultured to 60–70% confluence, they were serum-deprived for 24 h. On the day of the experiment, cells were treated with the indicated ligands and inhibitors. […] After treatment, cells were placed on ice, the media was aspirated, and the cells were washed twice with ice-cold PBS and lysed in 100 μl of Laemmli sample buffer 1X. The lysates were briefly sonicated, heated at 95°C for 5 min, and centrifuged for 5 min at 14,000 rpm. Resulting supernatants were loaded in separate lanes of a 10% SDS-PAGE gels and electrophoresed. Next, Western transfer on to PDVF membranes was completed. The Western blots were then probed with specific antibodies targeting phosphorylated and non-phosphorylated forms of ERK1/2, c-Src, PYK2, Akt, and EGFR for primary immunodetection. After blots were probed with horseradish peroxidase-conjugated secondary antibody, protein bands were visualized with enhanced chemiluminescence ECL reagent (Amersham Pharmacia Biotech, Piscataway, NJ or Pierce Biotechnology, Rockford, IL) and scanned using the GS-800 Calibrated Imaging Densitometer (Bio-Rad). The labeled bands were quantified using the Quantity One 4.6.3 software program (Bio-Rad).
(§4) Total cell lysates were separated by SDS-PAGE and analyzed by immunoblotting with anti-p-ERK1/2 Thr^202/Tyr^204, as described in Materials and Methods. ERK1/2 phosphorylation was quantitated by densitometry, and mean values were plotted from five independent experiments.
(§5) Total cell lysates were separated by SDS-PAGE and analyzed by immunoblotting with anti-p-ERK1/2 Thr^202/Tyr^204 (A–D) or anti-p-EGFR Tyr^1068 (E), as described in Materials and Methods. ERK1/2 and EGFR phosphorylation were quantitated by densitometry, and mean values were plotted from three to five independent experiments.
Total cell lysates were separated by SDS-PAGE and analyzed by immunoblotting with anti-p-ERK1/2 Thr^202/Tyr^204, as described in Materials and Methods. ERK1/2 phosphorylation was quantitated by densitometry, and mean values were plotted from three to five independent experiments.

[2] = target: epidermal growth factor receptor (African green monkey (endogenous in COS-7))
[3] = target: HA-epitope tagged human CRF1 receptor (human); assay: co-IP; HA-CRF1R immunoprecipitated with anti-HA monoclonal antibody (HA.11) and protein A/G PLUS-Agarose from 1% Nonidet P-40 lysates (50 mM Tris-HCl, 150 mM NaCl, pH 7.4) of transfected COS-7 cells, serum-deprived 24 h, untreated or treated with 100 nM CRF for 10 min at 37°C; blots probed for EGFR and HA, stripped and reprobed for c-Src; densitometry
[4] = tested on: PMA-stimulated ERK1/2 phosphorylation; assay: Modulation of PMA-stimulated ERK1/2 phosphorylation in COS-7 cells; format: cell-based; details: GM6001 10 μM, 30 min pretreatment; 100 nM PMA, 15 min
Procedure: COS-7 cells (from the American Type Culture Collection) were cultured at 37°C in a humidified atmosphere of 95% air, 5% CO2, in DMEM supplemented with 10% FBS, 100 μg/ml streptomycin, and 100 units/ml penicillin (COS-7 growth medium). Transient transfections were performed using LipofectAMINE (Life Technologies: Gaithersburg, MD) as described previously ([27]). Cells were seeded at 8 × 10^5 cells/10-cm dish in COS-7 medium and cultured for 3 days before transfection. COS-7 cells were transfected in 5 ml/dish OptiMEM containing 10 μg/ml LipofectAMINE with empty vector, pcDNA3 encoding the HA-CRF1R or the HA-CRF1R-Δ386 mutant. […]
(§6) The protocols for measuring total and phosphorylated ERK1/2, c-Src, PYK2, Akt, and EGFR have been previously published ([28], [29]). […] The labeled bands were quantified using the Quantity One 4.6.3 software program (Bio-Rad).
as §4, with “Figure 2 CRF-induced ERK1/2 phosphorylation is dependent on Gi protein. […] Total” for “Total”, “experiments. […]” for “experiments.”
Total cell lysates were separated by SDS-PAGE and analyzed by immunoblotting with anti-p-ERK1/2 Thr202/Tyr204, as described in materials and methods. […]

[5] = tested on: EGF-stimulated ERK1/2 phosphorylation; assay: Modulation of EGF-stimulated ERK1/2 phosphorylation in COS-7 cells; format: cell-based; details: GM6001 10 μM, 30 min pretreatment; 10 ng/ml EGF, 10 min
Procedure: (§7) COS-7 cells (from the American Type Culture Collection) were cultured at 37°C in a humidified atmosphere of 95% air, 5% CO2, in DMEM supplemented with 10% FBS, 100 μg/ml streptomycin, and 100 units/ml penicillin (COS-7 growth medium). Transient transfections were performed using LipofectAMINE (Life Technologies: Gaithersburg, MD) as described previously ([27]). Cells were seeded at 8 × 10^5 cells/10-cm dish in COS-7 medium and cultured for 3 days before transfection. COS-7 cells were transfected in 5 ml/dish OptiMEM containing 10 μg/ml LipofectAMINE with empty vector, pcDNA3 encoding the HA-CRF1R or the HA-CRF1R-Δ386 mutant. […] After replacing the transfection medium with fresh growth medium, transfected COS-7 cells were cultured for 1 day. […]
as §6
as §5, with “Figure 3 Involvement of EGFR transactivation in CRF-stimulated ERK1/2 phosphorylation. […] Total” for “Total”, “experiments. […]” for “experiments.”

[6] = tested on: endogenous EGFR in COS-7 cells; assay: EGF-stimulated ERK1/2 phosphorylation in COS-7 cells expressing HA-CRF1R; format: cell-based
Procedure: as §7, §6, §5

[7] = tested on: CRF1R-mediated Akt phosphorylation; assay: CRF-induced Akt phosphorylation at Ser473 in COS-7 cells expressing HA-CRF1R; format: cell-based, human; details: 100 nM CRF, 5 min
Procedure: as §1, §2
as §3, with “After blots were probed with horseradish peroxidase-conjugated secondary antibody, protein bands were visualized with enhanced chemiluminescence ECL reagent (Amersham Pharmacia Biotech, Piscataway, NJ or Pierce Biotechnology, Rockford, IL) and scanned using the GS-800 Calibrated Imaging Densitometer (Bio-Rad).” left out
Figure 7 CRF mediates Akt activation. […] Total cell lysates were separated by SDS-PAGE and analyzed by immunoblotting with anti-p-Akt Ser^473, as described in Materials and Methods. Akt phosphorylation was quantitated by densitometry, and mean values were plotted from three to five independent experiments. […]

Chain of epidermal growth factor (P01133 971-1023): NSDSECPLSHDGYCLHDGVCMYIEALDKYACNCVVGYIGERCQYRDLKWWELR

Compound: dn-Akt: plasmid pUSEamp encoding dominant-negative Akt-K179M
- effect on ERK1/2 activation by CRF ([1]; dn-Akt (K179M) co-transfection, 100 nM CRF): had no significant effect on ERK1/2 activation after stimulation with CRF

- EC50 of EGF-induced ERK1/2 phosphorylation, COS-7 cells (endogenous EGFR), EGF 0-100 ng/ml for 10 min, immunoblot densitometry [2]: 0.23 ng/mL
Compound: epidermal growth factor (from UniProt P01133 971-1023) (ligand)

- fold increase of co-precipitated Src over control (100 nM CRF, 10 min, against unstimulated cells) [3]: 8 fold
Compound: c-Src (enzyme)

- fold increase of co-precipitated EGFR over control (100 nM CRF, 10 min, against unstimulated cells) [3]: 2.5 fold
Compound: epidermal growth factor receptor

Compound: CNC(=O)[C@H](Cc1c[nH]c2ccccc12)NC(=O)[C@@H](CC(=O)NO)CC(C)C [GM6001]
- effect on basal and CRF-stimulated ERK1/2 phosphorylation ([1]; GM6001 0–20 μM, 30 min pretreatment, 100 nM CRF, 5 min): not altered
- effect on PMA-induced ERK1/2 phosphorylation [4]: significantly attenuated ERK1/2 phosphorylation induced by PMA
- effect on EGF-induced ERK1/2 phosphorylation [5]: significantly attenuated ERK1/2 phosphorylation induced by PMA but not EGF

Compound: CNC(=O)[C@H](Cc1ccccc1)NC(=O)[C@H](CC(C)C)[C@H](CSc1cccs1)C(=O)NO [batimastat]
- effect on basal and CRF-stimulated ERK1/2 phosphorylation ([1]; batimastat 5 μM, 30 min pretreatment, 100 nM CRF, 5 min): not altered

Compound: EGF: epidermal growth factor
- persistence of ERK1/2 phosphorylation ([6]; 10 ng/ml EGF): at least 30 min
- EC50 for EGF-induced ERK1/2 phosphorylation ([6]; EGF 0–100 ng/ml, 10 min): 0.23 ng/mL

Compound: Nc1ncnc2c1ncn2[C@@H]1O[C@@H]2COP(O)(=S)O[C@H]2[C@H]1O (some centres unmarked) [Rp-cAMP]
- effect on CRF-stimulated ERK1/2 activation ([1]; Rp-cAMP 0–100 μM, 30 min pretreatment, 100 nM CRF, 5 min): the magnitude of CRF1R-mediated activation of ERK1/2 was similar

Compound: O=c1cc(N2CCOCC2)oc2c(-c3ccccc3)cccc12 [LY294002]
- effect on CRF-stimulated phosphorylation of ERK1/2 ([1]; LY294002 pretreatment (discussion)): inhibited CRF-stimulated phosphorylation of ERK1/2 and Akt
- effect on CRF1R-mediated Akt signaling activation ([7]; LY294002 10 μM, 30 min pretreatment): abolished CRF1R-mediated Akt signaling activation

- IC50 ([1]; COS-7, AG1478 0–1,000 nM, 30 min pretreatment, 100 nM CRF, 5 min, read-out: IC50, inhibition of CRF-stimulated ERK1/2 phosphorylation): 10 nM
Compound: COc1cc2ncnc(Nc3cccc(Cl)c3)c2cc1OC [AG1478]
- effect on CRF-stimulated ERK1/2 phosphorylation ([1]; AG1478 100 nM, 100 nM CRF, 5 min): abolished phosphorylation of ERK1/2
- inhibition at 0.1 µM ([1]; Homo sapiens, COS-7, 100 nM AG1478, 30 min pretreatment, 100 nM CRF, 5 min, read-out: inhibition of CRF-induced maximal ERK1/2 phosphorylation): ~80%
- decrease of CRF-stimulated Akt phosphorylation ([7]; AG1478 100 nM): 25%
